Columns and labels:
[1] = Stability against hydrolytic cleavage, aprotic versus aqueous solutions; assay type: physicochemical; conditions: aprotic solutions compared to aqueous solutions
Excerpt: It is an additional aspect of the invention that the high solubility of the L-DOPA ester in aprotic solvents suitable for parenteral application (such as e.g. N-Methylpyrrolidone, Polysorbat 80, Dimethylacetamide, Solutol HS 15, Glycerol, Ethanol) also relates to L-DOPA esters known before the application date of WO 2016/155888 A1, in particular L-DOPA ethyl ester described in WO 2012/079072 A2 (Heller et al.). […] Moreover the stability is much higher even at pH-values of 5-8. L-DOPA ethyl ester solutions in aprotic solvents suitable for parenteral application could therefore solve tolerability problems known from earlier attempts to use L-DOPA ethyl ester in the treatment of neurological diseases.

[2] = Enzymatic cleavage of L-DOPA esters in human plasma (ex vivo); conditions: pH 7.4, 37° C., after 2 hours, n=3
Procedure: After 2, 15, 30, 45, 60 and 120 min 200 μL sample were taken, immediately deproteinized (200 μL 0.4N PCA), precipitated (200 μL 0.1% formic acid) and centrifuged. […] For purpose of comparison L-Dopa Ethyl Ester was investigated under same conditions.

converted to L-Dopa [2] | Compound | stability against hydrolytic cleavage [1]
50% | CCOC(=O)[C@@H](N)Cc1ccc(O)c(O)c1 [L-DOPA Ethyl Ester] | higher stability against hydrolytic cleavage compared to aqueous solutions
60% | N[C@@H](Cc1ccc(O)c(O)c1)C(=O)OCC(O)CO (stereo partly drawn) [L-DOPA Glycerin ester] | 

From patent publication US20190224153A1, “L-DOPA DERIVATIVES FOR THE TREATMENT OF NEUROLOGICAL DISEASES” (BERLIREM GMBH, priority 2016, published 2019)
